Patent US11845938B2, “Aptamer compositions and the use thereof” (City of Hope, priority 2016, dated 2023)
Entries after “also recorded” stand apart in the source; their conditions may differ.

B1: P1: RNA aptamer SEQ ID NO: 1, mHSP70 binding aptamer internalizing upon binding mHSP70 at the cell surface (nucleic acid)
chain: GGGAGACAAGAAUAAACGCUCAAUGCGCUGAAUGCCCAGCCGUGAAAGCGUCGAUUUCCAUCCUUCGACAGGAGGCUCACAACAGGC
modifications: listed as RNA, chemistry not fully specified

Legend:
[1] = bypassing dCK deficiency, reference [5]; cited from earlier work
[2] = system: PANC-1 cells; assay: Flow cytometry-based binding assay, apparent dissociation constant (KD) of Cy3-labeled aptamers; settings: flow cytometry MFI, one-site binding model, read-out: binding affinity (dissociation constant, KD)
Protocol: FIGS. 1A-1D. ApDCs of gemcitabine and 5-FU. (FIG. 1A) Chemical structure of gemcitabine and 5-FU prodrug (5F-dUTP). (FIG. 1B) The sequence of P19 incorporated with dFdCMP (dFdCTP) (SEQ ID NO: 18) and 5FdUMP (5FdUTP) (SEQ ID NO: 19) into P19, instead of 2′F-CTP and 2′F-UTP. (FIG. 1C) Intrinsic incorporation of active metabolites of gemcitabine (dFdCMP) and 5FdUMP in P19. M: Marker. 1:P19, 2: P19-dFdCMP, 3:P19-5FdUMP. (FIG. 1D) The dissociation constant (KD) was measured by flow cytometry using increasing concentrations of Cy3-labeled aptamers (from 15.6 to 1000 nM). Mean fluorescence intensity (MFI) was measured and calculated using a one-site binding model for non-linear regression.
FIGS. 4A-4C. […] Mean fluorescence intensity (MFI) was measured and calculated using a one-site binding model for non-linear regression. […] (FIG. 4B) The pancreatic cell lines PANC-1 and AsPC-1 were treated with 200 nM of the Cy3-labeled tP19 aptamer and analyzed by confocal microscopy. […]
Aptamer binding and uptake was also assessed by flow cytometry. […] Cells were washed with binding buffer and immediately analyzed by Fortessa flow cytometry (BD). […] The data were analyzed with FlowJo software.
To determine the apparent dissociation constant (KD) of aptamers to PANC-1 cells, the mean fluorescence intensity (MFI) was calculated for each concentration and for the unselected library controls. […]

[3] = system: PANC-1 cells; assay: Live-cell confocal imaging, aptamer internalization; type: cell-based; settings: Cy3-labeled RNAs at 200 nM, 2 hour, confocal microscopy
Protocol: FIGS. 2A-2D. Cell proliferation assay of dFdC-P19-ApDC and 5FdU-P19-ApDC. (FIGS. 2A-2B) The pancreatic cell lines PANC-1 were treated with 200 nM of the Cy3-labeled dFdCMP-P19-ApDC (FIG. 2A) or 5FdUMP-P19-ApDC (FIG. 2B) and analyzed by confocal microscopy. […] Dyes: Cy3 labeled RNAs, Hoechst 33342. Scale bar: […]. (FIG. 2C) After treatment dFdCMP-P19-ApDC or 5FdUMP-P19-ApDC in PANC-1 cells for 72 hrs, cell viability was measured by MTT assay. One-way ANOVA test: ****≤0.0001, ***≤0.001. (FIG. 2D) After treatment dFdCMP-P19-ApDC or 5FdUMP-P19-ApDC in chemo-resistance AsPC-1 cells for 72 hrs, cell viability was measured by MTT assay. One-way ANOVA test: ****≤0.0001, ***≤0.001
(§1) FIGS. 4A-4C. Binding affinity and cell internalization of truncated P19 (tP19). (FIG. 4A) The dissociation constant (KD) was measured by flow cytometry using increasing concentrations of Cy3-labeled aptamers (from 15.6 to 500 nM). Mean fluorescence intensity (MFI) was measured and calculated using a one-site binding model for non-linear regression. […] (FIG. 4B) The pancreatic cell lines PANC-1 and AsPC-1 were treated with 200 nM of the Cy3-labeled tP19 aptamer and analyzed by confocal microscopy. […] (FIG. 4C) Non pancreatic lines including Huh7, HepG2, MCF7 and PC3 cells were also treated with 200 nM of Cy3-labeled tP19 and P1 aptamers. […] Dye Hoechst 33342. Scale bar: 10 μm.
FIGS. 5A-5D. […]

[4] = system: AsPC-1 cells; assay: as above; type: cell-based; settings: 200 nM Cy3-labeled aptamer, confocal microscopy
Protocol: as §1
(§2) For the aptamer internalization studies, 1×10^5 cells were seeded in 35 mm glass-bottom dishes (MatTek, Ashland, Mass., USA) and grown in medium for 24 hrs. The RNAs were labeled with Cy3 using the Cy3 Silencer siRNA labeling kit (Ambion, Tex., USA.). Cy3-labeled RNAs were added to the cells at 200 nM or 500 nM and incubated for 2 hour. The images were taken using a Zeiss LSM 510 Meta Inverted 2 photon confocal microscope system using a C-Apo 40x/1.2NA water immersion objective.

[5] = system: Huh7, HepG2, MCF7 and PC3 cells; assay: Live-cell confocal imaging, aptamer internalization in non pancreatic lines; type: cell-based; settings: 200 nM Cy3-labeled aptamer
Protocol: as §1, §2

Molecule	effectiveness relative to dFdC [1] [fold]	Kd [2] [nM]	internalization into PANC-1 cells [3]	internalization into AsPC-1 cells [4]	internalization (Cy3 signal) in non-pancreatic cancer cell lines [5]
gemcitabine monophosphate [dFdCMP]	4				
tP19: truncated form of aptamer P19, SEQ ID NO: 3, 28 bps in length, mHSP70 binding aptamer (CUCAAUGGCGAAUGCCCGCCUAAUAGGG; listed as RNA, chemistry not fully specified)		8.57	internalized into PANC-1 and AsPC-1 cells	internalized into PANC-1 and AsPC-1 cells	No Cy3 signal was observed; also recorded: not in non-pancreatic cancer cell lines
B1					No Cy3 signal was observed
